25 compounds from patent publication US11845760B2, “PRMT5 inhibitors” (AMGEN INC., priority 2020, dated 2023) can be followed below.

SMILES strings stand for the structures.

One test relates to HCT116 MTAP null cells. The test can be described thus: HCT116 MTAP null cell line proliferation (CellTiter-Glo cell viability, 6 days). Format: cell-based. Conditions: HCT116-MTAP null, 144 h, HCT116 MTAP null cells, 6 days of treatment, CellTiter-Glo cell viability; read-out: HCT-116 MTAP null IC50. In outline:
(§1)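 Isogenic HCT116 pair (both MTAP alleles knocked out vs parent) in RPMI 1640 + 10% FBS, seeded overnight at 37° C, 5% CO2, then exposed 6 days to 8- or 9-point 1:3 dilutions from 1 or 10 μM. CellTiter-Glo luminescence; IC50 from sigmoidal fit, Hill slope fixed −1, top 100%, or 4-parameter logistic.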

The next test relates to HCT116 WT cells. The test can be described thus: HCT116 WT cell line proliferation (CellTiter-Glo cell viability, 6 days). The test is classed as cell-based. As to conditions: Homo sapiens, HCT-116, 144 h, HCT116 WT (parent) cells, 6 days of treatment, CellTiter-Glo cell viability; read-out: HCT-116 WT IC50. The method in brief: as §1

Turning to `Nc1nc2cnc(C(=O)N3CCOCC3c3ccc(C(F)(F)F)cn3)cc2c2c1COC2` (racemic) [Example 494, (4-amino-1,3-dihydrofuro[3,4-c][1,7]naphthyridin-8-yl)-[rac-(3S)-3-[5-(trifluoromethyl)-2-pyridyl]morpholin-4-yl]methanone], the half-maximal inhibitory concentration (IC50) in the test on HCT116 MTAP null cells was 352 nM; with HCT116 WT cells, 14000 nM.

For the compound `Nc1nc2ccc(C(=O)N3CCOCC3c3ccc(OC(F)F)cc3)cc2c2c1COC2` (racemic) [Example 496, (4-amino-1,3-dihydrofuro[3,4-c]quinolin-8-yl)((3R)-3-(4-(difluoromethoxy)phenyl)-4-morpholinyl)methanone and (4-amino-1,3-dihydrofuro[3,4-c]quinolin-8-yl)((3S)-3-(4-(difluoromethoxy)phenyl)-4-morpholinyl)methanone], the 50% inhibitory concentration (IC50) is 486 nM in the test with HCT116 MTAP null cells and 19800 nM in the test on HCT116 WT cells.

As for `Cn1ncc2c3cc(C(=O)N4CCOCC4c4ccc(C(F)(F)F)cc4)ccc3nc(N)c21` (racemic) [Example 497, (4-amino-3-methyl-3H-pyrazolo[3,4-c]quinolin-8-yl)((3R)-3-(4-(trifluoromethyl)phenyl)-4-morpholinyl)methanone and (4-amino-3-methyl-3H-pyrazolo[3,4-c]quinolin-8-yl)((3S)-3-(4-(trifluoromethyl)phenyl)-4-morpholinyl)methanone], the results for the IC50 in the test on HCT116 MTAP null cells and in the test on HCT116 WT cells were 477 nM and 26000 nM, respectively.

Consider `Cn1ncc2c3cc(C(=O)N4CCOCC4c4ccc(OC(F)(F)F)cc4)ccc3nc(N)c21` (racemic) [Example 498, (4-amino-3-methyl-3H-pyrazolo[3,4-c]quinolin-8-yl)((3R)-3-(4-(trifluoromethoxy)phenyl)-4-morpholinyl)methanone and (4-amino-3-methyl-3H-pyrazolo[3,4-c]quinolin-8-yl)((3S)-3-(4-(trifluoromethoxy)phenyl)-4-morpholinyl)methanone], for which the IC50 in the test with HCT116 MTAP null cells is 711 nM; with HCT116 WT cells it was 21500 nM.

On to `Cn1ncc2c3cc(C(=O)N4CCOCC4c4ccc(C(F)(F)F)cn4)ccc3nc(N)c21` (racemic) [Example 499, (4-amino-3-methyl-3H-pyrazolo[3,4-c]quinolin-8-yl)((3R)-3-(5-(trifluoromethyl)-2-pyridinyl)-4-morpholinyl)methanone and (4-amino-3-methyl-3H-pyrazolo[3,4-c]quinolin-8-yl)((3S)-3-(5-(trifluoromethyl)-2-pyridinyl)-4-morpholinyl)methanone], for which the IC50 was 1100 nM in the test with HCT116 MTAP null cells and 36600 nM in the test on HCT116 WT cells.

In the case of `Nc1nc2ccc(C(=O)N3CCOCC3c3ccc(Br)nn3)cc2c2c1COC2` (racemic) [Example 500, (4-amino-1,3-dihydrofuro[3,4-c]quinolim-8-yl)-[rac-(3S)-3-(6-bromopyridazin-3-yl)morpholin-4-yl]methanone], the figures for the half-maximal inhibitory concentration (IC50) in the test on HCT116 MTAP null cells and with HCT116 WT cells were > 1000 nM and > 10000 nM, respectively.

On to `Nc1nc2cnc(C(=O)N3CCOCC3c3c(F)cc(Br)cc3F)cc2c2c1COC2` (racemic) [Example 505, (4-amino-1,3-dihydrofuro[3,4-c][1,7]naphthyridin-8-yl)((3R)-3-(4-bromo-2,6-difluorophenyl)-4-morpholinyl)methanone and (4-amino-1,3-dihydrofuro[3,4-c][1,7]naphthyridin-8-yl)((3S)-3-(4-bromo-2,6-difluorophenyl)-4-morpholinyl)methanone], for which the results for the IC50 with HCT116 MTAP null cells and with HCT116 WT cells were 330 nM and 21500 nM, respectively.

Take `Nc1nc2ccc(C(=O)N3CCOCC3c3ccc(CC(F)(F)F)cc3)cc2c2c1COC2` (racemic) [Example 508, (4-amino-1,3-dihydrofuro[3,4-c]quinolin-8-yl)((3R)-3-(4-(2,2,2-trifluoroethyl)phenyl)-4-morpholinyl)methanone and (4-amino-1,3-dihydrofuro[3,4-c]quinolin-8-yl)((3S)-3-(4-(2,2,2-trifluoroethyl)phenyl)-4-morpholinyl)methanone]: the IC50 in the test with HCT116 MTAP null cells came out at 603 nM; in the test with HCT116 WT cells, 6610 nM.

Turning to `Nc1nc2cnc(C(=O)N3CCOCC3c3ccc(CC(F)(F)F)cc3)cc2c2c1COC2` (racemic) [Example 509, (4-amino-1,3-dihydrofuro[3,4-c][1,7]naphthyridin-8-yl)((3R)-3-(4-(2,2,2-trifluoroethyl)phenyl)-4-morpholinyl)methanone and (4-amino-1,3-dihydrofuro[3,4-c][1,7]naphthyridin-8-yl)((3S)-3-(4-(2,2,2-trifluoroethyl)phenyl)-4-morpholinyl)methanone], the results for the 50% inhibitory concentration (IC50) with HCT116 MTAP null cells and with HCT116 WT cells were 325 nM and 10600 nM, respectively.

For `Cc1ccc(C2COCCN2C(=O)c2ccc3nc(N)c4c(c3c2)COC4)cn1` (racemic) [Example 512, (4-amino-1,3-dihydrofuro[3,4-c]quinolin-8-yl)-[rac-(3R)-3-(6-methyl-3-pyridyl)morpholin-4-yl]methanone], the half-maximal inhibitory concentration (IC50) in the test on HCT116 MTAP null cells is > 1000 nM; in the test with HCT116 WT cells, > 10000 nM.

Regarding `Nc1nc2ccc(C(=O)N3CCOCC3c3ccc(C(F)(F)F)nc3)cc2c2c1COC2` (racemic) [Example 513, (4-amino-1,3-dihydrofuro[3,4-c]quinolin-8-yl)-[rac-(3S)-3-[6-(trifluoromethyl)-3-pyridyl]morpholin-4-yl]methanone], the half-maximal inhibitory concentration (IC50) in the test with HCT116 MTAP null cells was 380 nM; in the test on HCT116 WT cells it was > 10000 nM.

`Cn1ncc2c(N)nc3cc(F)c(C(=O)N4CCC(c5ccc(C(F)(F)F)cn5)C4)cc3c21` (racemic) [Example 541, (4-amino-7-fluoro-1-methyl-1H-pyrazolo[4,3-c]quinolin-8-yl)((3R)-3-(5-(trifluoromethyl)-2-pyridinyl)-1-pyrrolidinyl)methanone and (4-amino-7-fluoro-1-methyl-1H-pyrazolo[4,3-c]quinolin-8-yl)((3S)-3-(5-(trifluoromethyl)-2-pyridinyl)-1-pyrrolidinyl)methanone]: the 50% inhibitory concentration (IC50) with HCT116 MTAP null cells is 56 nM; in the test with HCT116 WT cells, 5330 nM.

For the compound `Nc1nc2cc(Cl)c(C(=O)N3CCC(c4ccc(C(F)(F)F)cn4)C3)cc2c2c1COC2` (racemic) [Example 542, (4-amino-7-chloro-1,3-dihydrofuro[3,4-c]quinolin-8-yl)((3R)-3-(5-(trifluoromethyl)-2-pyridinyl)-1-pyrrolidinyl)methanone and (4-amino-7-chloro-1,3-dihydrofuro[3,4-c]quinolin-8-yl)((3S)-3-(5-(trifluoromethyl)-2-pyridinyl)-1-pyrrolidinyl)methanone], the half-maximal inhibitory concentration (IC50) came out at 235 nM with HCT116 MTAP null cells and 12500 nM in the test with HCT116 WT cells.

For the compound `Cn1ncc2c(N)nc3cc(Cl)c(C(=O)N4CCC(c5ccc(C(F)(F)F)cn5)C4)cc3c21` (racemic) [Example 543, (4-amino-7-chloro-1-methyl-1H-pyrazolo[4,3-c]quinolin-8-yl)((3R)-3-(5-(trifluoromethyl)-2-pyridinyl)-1-pyrrolidinyl)methanone and (4-amino-7-chloro-1-methyl-1H-pyrazolo[4,3-c]quinolin-8-yl)((3S)-3-(5-(trifluoromethyl)-2-pyridinyl)-1-pyrrolidinyl)methanone], the IC50 with HCT116 MTAP null cells is 18 nM; in the test with HCT116 WT cells it was 1860 nM.

Take `COc1ccc([C@H]2COC[C@@H](C)N2C(=O)c2cc3c4c(c(N)nc3cn2)COC4)nn1` (relative stereo) [Example 491, (4-amino-1,3-dihydrofuro[3,4-c][1,7]naphthyridin-8-yl)((3S,5R)-3-(6-methoxypyridazin-3-yl)-5-methylmorpholino)methanone]: the half-inhibitory concentration (IC50) with HCT116 MTAP null cells was found to be 108 nM; in the test with HCT116 WT cells, 4380 nM.

For `C[C@H]1OCc2c1c(N)nc1cnc(C(=O)N3CCOC[C@@H]3c3ccc(C(F)(F)F)cc3)cc21` (single isomer, unassigned) [Example 452], the IC50 is 49 nM with HCT116 MTAP null cells and 3460 nM in the test with HCT116 WT cells.

As to `C[C@@H]1OCc2c1c(N)nc1cnc(C(=O)N3CCOC[C@@H]3c3ccc(C(F)(F)F)cc3)cc21` (single isomer, unassigned) [Example 453], the values for the IC50 in the test with HCT116 MTAP null cells and in the test with HCT116 WT cells were 2180 nM and 40300 nM, respectively.

Take `C[C@H]1OCc2c1c(N)nc1cnc(C(=O)N3CCOC[C@@H]3c3ccc(C(F)(F)C(F)(F)F)cc3)cc21` (single isomer, unassigned) [Example 454]: the half-inhibitory concentration (IC50) in the test on HCT116 MTAP null cells was found to be 24 nM; in the test on HCT116 WT cells it was 778 nM.

Turning to `Nc1nc2ccc(C(=O)N3CCOC[C@H]3c3ccc(C(F)(F)F)cc3)cc2c2c1COC2` (single isomer, unassigned) [Example 455], the IC50 with HCT116 MTAP null cells is > 1000 nM; with HCT116 WT cells, > 10000 nM.

With `Nc1nc2ccc(C(=O)N3CCOC[C@@H]3c3ccc(C(F)(F)F)cc3)cc2c2c1COC2` (single isomer, unassigned) [Example 456], the figures for the IC50 in the test on HCT116 MTAP null cells and in the test with HCT116 WT cells were 102 nM and 4360 nM, respectively.

In the case of `Nc1nc2cnc(C(=O)N3CCOC[C@H]3c3ccc(S(F)(F)(F)(F)F)cc3)cc2c2c1COC2` (single isomer, unassigned) [Example 457], the concentration for half-maximal inhibition (IC50) with HCT116 MTAP null cells was found to be 8710 nM; in the test on HCT116 WT cells it was 18600 nM.

As for `Nc1nc2cnc(C(=O)N3CCOC[C@@H]3c3ccc(S(F)(F)(F)(F)F)cc3)cc2c2c1COC2` (single isomer, unassigned) [Example 458], the IC50 in the test on HCT116 MTAP null cells turned out to be 18 nM; with HCT116 WT cells, 454 nM.

For `Nc1nc2cnc(C(=O)N3CCOC[C@@H]3c3ncc(Br)cc3F)cc2c2c1COC2` (single isomer, unassigned) [Example 459], the IC50 in the test on HCT116 MTAP null cells is 72 nM; with HCT116 WT cells, 6140 nM.

On to `Nc1nc2cc(F)c(C(=O)N3CCOC[C@@H]3c3ncc(Br)cc3F)cc2c2c1COC2` (single isomer, unassigned) [Example 460], for which the IC50 in the test with HCT116 MTAP null cells turned out to be 30 nM; in the test on HCT116 WT cells, 1810 nM.

With `CC[C@@H]1CN(C(=O)c2ccc3nc(N)c4c(c3c2)CO[C@@H]4C)C[C@H]1c1ccc(C)cc1` (single isomer, unassigned) [Example 461], the IC50 in the test on HCT116 MTAP null cells is 864 nM; in the test with HCT116 WT cells, 14600 nM.
